Measurements taken from patent US11260042B2, “Pharmaceutical combination for the treatment of cancer” (ABILITY PHARMACEUTICALS S.L., priority 2017, dated 2022).

How the values were obtained:
H157 cells = experiment: Cell viability (MTT) of ABTL0812 in combination with paclitaxel, H157; format: cell-based, human; conditions: H157, 48 hours, 0.1% FBS, single agent
Experimental: Methods: A549 cells were incubated with increasing concentrations of ABTL0812 (3-300 μM), paclitaxel (0.003-1 μM), or a combination of both using subIC50 fixed concentration of ABTL0812 and 0.003-1 μM paclitaxel for 72 hours in DMEM with 0.1% FBS. H157, H1957 and HTB-812 cells were incubated with increasing concentrations of paclitaxel (0.001-10 μM) alone and in combination with subIC50 fixed concentration of ABTL0812 for 48 hours in DMEM with 0.1% FBS. Cell viability was evaluated in all cases by MTT assay and IC50's were calculated for paclitaxel and the combination. The concentrations of the combinations for the different cell lines were:
Finally, the Combination Index (CI), as described in the previous section, was calculated for the values of paclitaxel IC50.

[1] = system: A549 (human lung carcinoma) cell line; experiment: Cell viability (MTT) of ABTL0812 in combination with docetaxel in lung cancer; format: cell-based; conditions: A549, three days, FBS 0.5%, single agent
Experimental: Methods: A549 cells were incubated with increasing concentrations of ABTL0812 (3-300 μM), docetaxel (0.01-100 μM), or a combination of both (subIC50, i.e., 20 μM fixed concentration of ABTL812 and 0.01-100 μM docetaxel) for three days (FBS 0.5%). […] In the denominator, (Dx)1 is for D1“alone” that inhibits a system x %, and (Dx)2 is for D2“alone” that inhibits a system x %.

[2] = system: H157 human squamous lung cancer xenograft; format: in vivo; conditions: day 20 after beginning of treatments; ABTL0812 120 mg/kg oral; end-point tumor volume >1000 mm^3 or welfare
Experimental: Objective: Investigate survival rate for ABTL0812 alone and in combination with paclitaxel and carboplatin (P/C) with a Kaplan-Meier analysis in a human squamous NSCLC xenograft model Methods: Mice were injected with 5×10^6 H157 cells in one flank to induce tumor formation. […] The different conditions studied were vehicle, 120 mg/kg oral ABTL0812 daily, 15 mg/kg carboplatin+50 mg/kg paclitaxel by i.p. route and an additional group receiving the combination of these two regimens. […] Tumor volume was monitored 3 times a week.

[3] = system: SH-SY5Y human neuroblastoma xenograft; format: in vivo, Nu/nu female mice
Experimental: Methods: Immunodeficient athymic NMRI-Foxn1^nu/Foxn1^nu nude mice were subcutaneously injected with SH-SY5Y cells. This cell line was genetically modified to express luciferase, which would allow the in vivo study not only of tumor size, but also of metastasis formation. When tumors reached an average volume of 80 mm^3, mice were randomly distributed into different treatment groups. ABTL0812 was administered orally at 120 mg/kg daily. In parallel we used cisplatin, a drug included in the chemotherapy induction phase for the treatment of neuroblastoma. Cisplatin was administered at 2 mg/kg i.p. twice a week (Wang et al. 2010). Additionally, we studied the effect of combining ABTL0812 with cisplatin at the indicated doses.
C. Metastasis formation. In order to investigate the effect of ABTL0812 in metastasis formation we used a SH-SY5Y cell line transduced with a luciferase reporter vector. As described above, mice bearing xenograft tumors derived from this cell line were treated with ABTL0812, cisplatin or the combination of both drugs. After ten days of treatment animals were sacrificed and metastasis were assessed ex vivo by monitoring luciferase-expressing cells in lung and liver.

[4] = system: MDB-DA-231 (human triple negative breast cancer); experiment: Cell viability (MTT) of ABTL0812 alone or with paclitaxel in breast cancer; format: cell-based
Experimental: Methods: MDB-DA-231 cells were seeded in 24-well plates together with increasing concentration of paclitaxel (1-100 nM) in the presence of 5, 10 and 20 μM of ABTL0812 (all doses below to an IC25) for 48h (0.5% FBS). Cell viability was studied by the MTT assay and several parameters were determined to evaluate a possible synergism. First the IC50 for each drug alone or the combination was calculated.

[5] = format: in vivo
Experimental: Methods: Forty-five female CD-1 mice were distributed by means of the body weight stratification method into nine experimental groups (A-I) (5 animals for group) that differed in the treatment or in the day on which the reference items (paclitaxel and carboplatin) were administered.
The table below summarizes the treatment groups. Please note that the same administration schedule and doses were administered as in the previous efficacy studies.
The safety assessment relied on observed mortality, local and systemic clinical signs, body weight and food consumption recorded throughout the whole study. In addition, clinical pathology determinations (biochemistry and hematology) were performed before sacrifice in all animals. At the end of the observation period (one day after the last administration), all surviving animals were sacrificed and subjected to a gross necropsy. Moreover, the safety assessment was also based on the weight of selected target organs collected at sacrifice.

CCCCC/C=C\C/C=C\CCCCCCC(O)C(=O)O (centres unmarked) [ABTL0812, COOH—CHOH—(CH2)6—(CH═CH—CH2)2—(CH2)3—CH3]
IC50 (H157 cells): 23 µM
IC50 [1]: 42 µM
survival (Kaplan-Meier) [2]: 0%
tumor progression (size, weight) ([3]; ABTL0812 120 mg/kg oral daily, cisplatin 2 mg/kg i.p. twice a week): inhibits tumor progression with an efficacy that is similar to cisplatin
Hematocrit ([3]; mouse, in vivo): 40.2 ± 1.4%
RBC ([3]; mouse, in vivo): 7.9 ± 0.4 ×10^6/μL
WBC ([3]; mouse, in vivo): 3.9 ± 1.3 ×10^3/μL
hematological safety ([3]; mouse, in vivo): no impact on blood hematocrit
loss of body weight (transient) ([3]; mouse, in vivo): < 10%
metastasis formation in lung and liver ([3]; ten days of treatment, luciferase-expressing cells ex vivo): inhibited metastasis formation
cytotoxicity alone at the concentration chosen for the combination ([4]; MDB-DA-231): < 10%
IC50 ([4]; MDB-DA-231, 48h, 0.5% FBS, MTT, single agent): 29 µM
Biochemistry Creat ([5]; mouse, in vivo): 9.18 µmol/L
Biochemistry Triglyc ([5]; mouse, in vivo): 0.94 mmol/L
Biochemistry Urea ([5]; mouse, in vivo): 3.66 mmol/L
Body Weight Gain D 8-11 ([5]; mouse, in vivo): 0.138 g
Hematology PLT ([5]; mouse, in vivo): 1293 ×10^3/μL
Hematology RBC ([5]; mouse, in vivo): 9.57 ×10^6/μL
Hematology WBC ([5]; mouse, in vivo): 5.94 ×10^3/μL
mortality and tolerability ([5]; two-week administration): did not cause mortality and was well tolerated
